TGI and GI50 data for 14 molecules are collected here from PubChem BioAssay (NCI).

Some test systems named below: M14 melanoma; MOLT-4 leukemia; SF-295 CNS; DU-145 prostate; RPMI-8226 leukemia; HL-60(TB) leukemia; SK-OV-3 ovarian; LOX IMVI melanoma; HT29 colon; OVCAR-5 ovarian.
Common to all, as to assay: DTP human tumour cell line panel, 48 h

Usually TGI stands for the concentration giving total growth inhibition. A word on the GI50: it is the concentration at which growth is held to half of that of the control.

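All cell lines were grown in 96-well plates and treated with compound for 48 hours. GI50 marks 50% less growth. The concentration for full growth arrest is given as TGI.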 Where a SMILES comes first, the peptide text is derived from it. [ ]: non-standard residue; d: D form. The star is where a group is joined. ξ: configuration not given here. ξF = NC(Cc1ccccc1)C(=O)O; Cbz = O=C(OCc1ccccc1)*; Aib = CC(C)(N)C(=O)O Where only a bound is given, the exact number is not on record here.

For the molecule `C=C1C(=O)O[C@@H]2/C=C(\C)CC/C=C(\C)CC[C@@]12O`, the TGI with M14 melanoma stood at 10.5 µM; with MOLT-4 leukemia, 6.15 µM; in the experiment on SF-295 CNS, 25.2 µM; in the experiment with DU-145 prostate it was 4.93 µM; with RPMI-8226 leukemia, 6.43 µM; with HL-60(TB) leukemia it was 3.02 µM. Besides, the total growth inhibition concentration (TGI) in the experiment with SK-OV-3 ovarian was determined as 54.4 µM; in the experiment on LOX IMVI melanoma it was 5.23 µM; with HT29 colon, 10.9 µM; with OVCAR-5 ovarian it was 25.8 µM.

As for `COC(=O)C1=C(C)N2CCSC2(C)C(C(=O)OC)C1c1cccc(Cl)c1` (centres undefined), the total growth inhibition concentration (TGI) amounted to 89.3 µM in the experiment with M14 melanoma; 45.6 µM in the experiment on MOLT-4 leukemia; 34 µM in the experiment on SF-295 CNS; 81.7 µM in the experiment with RPMI-8226 leukemia; 49.3 µM in the experiment with HL-60(TB) leukemia; 33.4 µM in the experiment on HT29 colon.

Turning to `CN(Cc1cn(O)c2nc(=N)nc(N)c-2n1)c1ccc(C(=O)NC23CC4CC(CC(C4)C2)C3)cc1`, the TGI with M14 melanoma, in the experiment with MOLT-4 leukemia, in the experiment on SF-295 CNS, with DU-145 prostate, with RPMI-8226 leukemia and with HL-60(TB) leukemia was more than 100 µM throughout. In addition, the TGI in the experiment with SK-OV-3 ovarian, in the experiment with LOX IMVI melanoma and with OVCAR-5 ovarian was more than 100 µM in each case.

For the molecule `CC1(CO)COS(=O)OC1` (centres undefined), the TGI with MOLT-4 leukemia, with SF-295 CNS, in the experiment on DU-145 prostate, in the experiment with SK-OV-3 ovarian, in the experiment on LOX IMVI melanoma and with HT29 colon was more than 100 µM in each case.

Consider `O=C1c2cccnc2C(=O)c2c1c(C(=O)OCCN1CCCCC1)c1ccccn21`, for which the GI50 is 0.0147 µM with M14 melanoma; 0.162 µM in the experiment on MOLT-4 leukemia; 0.0311 µM in the experiment with SF-295 CNS; 0.0189 µM with DU-145 prostate; 0.119 µM in the experiment on RPMI-8226 leukemia; 0.363 µM in the experiment with HL-60(TB) leukemia. In addition, the GI50 was 0.0124 µM in the experiment with SK-OV-3 ovarian, 0.0172 µM in the experiment with LOX IMVI melanoma, 0.12 µM with HT29 colon and 0.198 µM in the experiment with OVCAR-5 ovarian. Moreover, the TGI came out at 0.0656 µM with M14 melanoma; 2.21 µM with MOLT-4 leukemia; 0.2 µM with SF-295 CNS; 0.714 µM in the experiment with DU-145 prostate; 0.95 µM in the experiment with RPMI-8226 leukemia; 3.24 µM in the experiment on HL-60(TB) leukemia. For the same molecule, the concentration for total growth inhibition (TGI) in the experiment on SK-OV-3 ovarian was 0.051 µM; in the experiment on LOX IMVI melanoma it was 0.095 µM; in the experiment on HT29 colon, 1.71 µM; with OVCAR-5 ovarian it was 2.02 µM.

As to `Nc1ccc(O)c2c1C(=O)c1c(N)ccc(O)c1C2=O`, the TGI with M14 melanoma, in the experiment on MOLT-4 leukemia, in the experiment with SF-295 CNS, with RPMI-8226 leukemia, with HL-60(TB) leukemia and with SK-OV-3 ovarian was more than 100 µM in each case. Further, the TGI in the experiment on LOX IMVI melanoma and in the experiment on OVCAR-5 ovarian was more than 100 µM in each case.

Consider `Cc1cc2c(c(O)c1-c1c(C)cc(O)c3c1C(=O)C=CC3=O)C(=O)C=CC2=O`, for which the TGI was more than 100 µM in the experiment with M14 melanoma; 0.375 µM in the experiment on MOLT-4 leukemia; 33.1 µM in the experiment with SF-295 CNS; 4.73 µM in the experiment with DU-145 prostate; 2.29 µM in the experiment on RPMI-8226 leukemia; 29 µM with SK-OV-3 ovarian. Further, the TGI in the experiment on LOX IMVI melanoma was found to be 4.21 µM; in the experiment with OVCAR-5 ovarian it was 7.86 µM.

As for `CCN1c2cc(Br)cc3[nH]c(=O)n(c23)CCC1C` (centres undefined), the TGI is 34.8 µM in the experiment with M14 melanoma; 65.5 µM in the experiment on MOLT-4 leukemia; 39.6 µM in the experiment with SF-295 CNS; 36 µM in the experiment with DU-145 prostate; more than 100 µM in the experiment on RPMI-8226 leukemia; 35.8 µM in the experiment with HL-60(TB) leukemia. In addition, the TGI with SK-OV-3 ovarian was found to be 49.4 µM; with LOX IMVI melanoma, 24.7 µM; in the experiment with HT29 colon, 31.6 µM; in the experiment on OVCAR-5 ovarian it was 49.9 µM.

On to `OCC(O)CNc1ncnc2ccccc12` (centres undefined), for which the TGI in the experiment with M14 melanoma, with MOLT-4 leukemia, in the experiment with SF-295 CNS, with DU-145 prostate, in the experiment with RPMI-8226 leukemia and in the experiment on HL-60(TB) leukemia was more than 100 µM in each case. The total growth inhibition concentration (TGI) in the experiment with SK-OV-3 ovarian, in the experiment on LOX IMVI melanoma, with HT29 colon and in the experiment on OVCAR-5 ovarian was more than 100 µM each time.

Regarding `CNC1Cc2c[nH]c3cccc(c23)C12C=C(C)C(=O)O2` (centres undefined), the TGI in the experiment on M14 melanoma, in the experiment with MOLT-4 leukemia, in the experiment with SF-295 CNS, in the experiment on DU-145 prostate, with RPMI-8226 leukemia and in the experiment on HL-60(TB) leukemia was more than 100 µM throughout. Further, the TGI with SK-OV-3 ovarian, in the experiment with LOX IMVI melanoma, with HT29 colon and in the experiment with OVCAR-5 ovarian was more than 100 µM in each case.

Regarding `CCOC(=O)CNC(=O)C(Cc1ccccc1)NC(=O)C(C)(C)NC(=O)OCc1ccccc1` (centres undefined) (Cbz-[Aib]-[ξF]-Gly-OEt), the concentration for total growth inhibition (TGI) in the experiment with M14 melanoma, in the experiment with MOLT-4 leukemia, with SF-295 CNS, in the experiment with DU-145 prostate, with RPMI-8226 leukemia and in the experiment with HL-60(TB) leukemia was more than 100 µM in each case. For the same molecule, the total growth inhibition concentration (TGI) with LOX IMVI melanoma, in the experiment with HT29 colon and with OVCAR-5 ovarian was more than 100 µM each time.

On to `O=C(CSCC(=O)N/N=C/c1ccccc1)N/N=C\c1ccccc1`, for which the TGI with M14 melanoma, in the experiment with MOLT-4 leukemia, in the experiment on SF-295 CNS, in the experiment on DU-145 prostate, in the experiment with RPMI-8226 leukemia and in the experiment on SK-OV-3 ovarian was more than 100 µM each time. Also, the TGI with LOX IMVI melanoma, with HT29 colon and with OVCAR-5 ovarian was more than 100 µM throughout.

Turning to `NC(=O)C1CCCN1C(=O)C(N)Cc1ccccc1` (stereo not drawn) (H-Phe-Pro-NH2; configuration not given here), the TGI in the experiment on M14 melanoma, in the experiment on MOLT-4 leukemia, in the experiment on SF-295 CNS, with DU-145 prostate, in the experiment with RPMI-8226 leukemia and in the experiment on HL-60(TB) leukemia was more than 100 µM throughout. In addition, the concentration for total growth inhibition (TGI) in the experiment on LOX IMVI melanoma, in the experiment on HT29 colon and in the experiment on OVCAR-5 ovarian was more than 100 µM each time.

Regarding `O=C(Oc1c(Cl)cc(C2(c3cc(Cl)c(OC(=O)c4ccccc4)c(Cl)c3)CCCCC2)cc1Cl)c1ccccc1`, the TGI with M14 melanoma is 30.3 µM; in the experiment with MOLT-4 leukemia, 20.7 µM; with SF-295 CNS, 28.6 µM; with DU-145 prostate, 36.7 µM; in the experiment on RPMI-8226 leukemia it was 33.3 µM; with HL-60(TB) leukemia, 23.5 µM. Moreover, the TGI in the experiment with SK-OV-3 ovarian was found to be 31.2 µM; in the experiment on LOX IMVI melanoma, 29.1 µM; in the experiment with HT29 colon, 30 µM; in the experiment with OVCAR-5 ovarian it was 27.4 µM.
